Molecular target: IDH2 R140Q (Homo sapiens (Human), UniProt P48735, R140Q)
Assay: IDH2 R140Q enzymatic cofactor depletion assay (diaphorase/resazurin)
Assay type: biochemical
Details: IDH2 R140Q enzyme, one hour preincubation with compound, one hour reaction; read-out: Enz R140Q
Experimental: The reaction was terminated by the addition of a second enzyme, diaphorase, and a corresponding substrate, resazurin. Diaphorase reduces resazurin to the highly fluorescent resorufin with the concomitant oxidation of NADPH to NADP, both halting the IDH2 reaction by depleting the available cofactor pool and facilitating quantitation of the amount of cofactor remaining after a specific time period through quantitative production of an easily detected fluorophore.
The compound was then incubated for one hour at room temperature with the enzyme; before starting the IDH2 reaction with the addition of 10 μl of substrate mix containing 50 μM NADPH and 6.3 mM α-KG in the buffer described above. After a further one hour of incubation at room temperature, the reaction was halted and the remaining NADPH measured through conversion of resazurin to resorufin by the addition of 25 μl Stop Mix (36 μg/ml diaphorase enzyme and 60 μM resazurin; in buffer). After one minute of incubation the plate was read on a plate reader at Ex544/Em590.

IDH2 R140Q, sequence (P48735 40-452 R140Q): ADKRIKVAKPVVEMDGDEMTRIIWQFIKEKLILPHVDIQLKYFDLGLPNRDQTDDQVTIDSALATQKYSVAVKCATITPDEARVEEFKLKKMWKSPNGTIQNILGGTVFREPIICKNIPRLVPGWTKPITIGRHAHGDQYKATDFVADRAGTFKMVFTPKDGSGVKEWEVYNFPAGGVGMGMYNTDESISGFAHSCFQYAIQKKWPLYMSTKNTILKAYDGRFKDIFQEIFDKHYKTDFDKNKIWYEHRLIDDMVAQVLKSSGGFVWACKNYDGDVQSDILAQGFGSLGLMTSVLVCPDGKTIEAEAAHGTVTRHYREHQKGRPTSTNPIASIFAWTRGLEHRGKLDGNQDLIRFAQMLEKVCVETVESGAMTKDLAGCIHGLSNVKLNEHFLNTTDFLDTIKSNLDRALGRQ

Row | SMILES | IC50
1 | O=C(Nc1cc(F)cc(F)c1)Nc1cc(S(=O)(=O)NCC(F)(F)F)ccc1-c1ccccc1 [Compound 89, 2-(3-(3,5-difluorophenyl)ureido)-N-(2,2,2-trifluoroethyl)-[1,1′-biphenyl]-4-sulfonamide] | 100 to 1000 nM
2 | O=C(Nc1cc(F)ccc1Cl)Nc1cc(S(=O)(=O)NCC(F)(F)F)ccc1-c1ccccc1 [Compound 90, 2-(3-(2-chloro-5-fluorophenyl)ureido)-N-(2,2,2-trifluoroethyl)-[1,1′-biphenyl]-4-sulfonamide] | 100 to 1000 nM
3 | Cc1cc(NC(=O)Nc2cc(S(=O)(=O)NCC(F)(F)F)ccc2-c2ccccc2)nn1C [Compound 91, 2-(3-(1,5-dimethyl-1H-pyrazol-3-yl)ureido)-N-(2,2,2-trifluoroethyl)-[1,1′-biphenyl]-4-sulfonamide] | 100 to 1000 nM
4 | CC(C)n1ccc(NC(=O)Nc2cc(S(=O)(=O)NCC(F)(F)F)ccc2-c2ccccc2)n1 [Compound 92, 2-(3-(1-isopropyl-1H-pyrazol-3-yl)ureido)-N-(2,2,2-trifluoroethyl)-[1,1′-biphenyl]-4-sulfonamide] | 100 to 1000 nM
5 | CCn1ccc(NC(=O)Nc2cc(S(=O)(=O)NCC(F)(F)F)ccc2-c2ccccc2)n1 [Compound 93, 2-(3-(1-ethyl-1H-pyrazol-3-yl)ureido)-N-(2,2,2-trifluoroethyl)-[1,1′-biphenyl]-4-sulfonamide] | 100 to 1000 nM
6 | O=C(Nc1cncc(C(F)(F)F)c1)Nc1cc(S(=O)(=O)NCC(F)(F)F)ccc1-c1ccccc1 [Compound 94, N-(2,2,2-trifluoroethyl)-2-(3-(5-(trifluoromethyl)pyridin-3-yl)ureido)-[1,1′-biphenyl]-4-sulfonamide] | 100 to 1000 nM
7 | O=C(Nc1cc(S(=O)(=O)NCC(F)(F)F)ccc1-c1ccccc1)Nc1ncccc1Cl [Compound 95] | 1000 to 10000 nM
8 | Cc1cc(NC(=O)Nc2cc(S(=O)(=O)NCC(F)(F)F)ccc2-c2ccccc2)n(C)n1 [Compound 96] | 1000 to 10000 nM
9 | O=C(Nc1cc(S(=O)(=O)NCC(F)(F)F)ccc1-c1ccccc1)Nc1cccnc1F [Compound 97, 2-(3-(2-fluoropyridin-3-yl)ureido)-N-(2,2,2-trifluoroethyl)-[1,1′-biphenyl]-4-sulfonamide] | 100 to 1000 nM
10 | O=C(Nc1cncc(F)c1)Nc1cc(S(=O)(=O)NCC(F)(F)F)ccc1-c1ccccc1 [Compound 98, 2-(3-(5-fluoropyridin-3-yl)ureido)-N-(2,2,2-trifluoroethyl)-[1,1′-biphenyl]-4-sulfonamide] | 100 to 1000 nM
11 | O=C(Nc1cc(S(=O)(=O)NCC(F)(F)F)ccc1-c1ccccc1)Nc1ncccc1F [Compound 99, 2-(3-(3-fluoropyridin-2-yl)ureido)-N-(2,2,2-trifluoroethyl)-[1,1′-biphenyl]-4-sulfonamide] | 1000 to 10000 nM
12 | O=C(Nc1ncc(Cl)s1)Nc1cc(S(=O)(=O)NCC(F)(F)F)ccc1-c1ccccc1 [Compound 100, 2-(3-(5-chlorothiazol-2-yl)ureido)-N-(2,2,2-trifluoroethyl)-[1,1′-biphenyl]-4-sulfonamide] | 100 to 1000 nM
13 | Cc1nc(NC(=O)Nc2cc(S(=O)(=O)NCC(F)(F)F)ccc2-c2ccccc2)sc1Cl [Compound 101, 2-(3-(5-chloro-4-methylthiazol-2-yl)ureido)-N-(2,2,2-trifluoroethyl)-[1,1′-biphenyl]-4-sulfonamide] | 100 to 1000 nM
14 | Cc1coc(NC(=O)Nc2cc(S(=O)(=O)NCC(F)(F)F)ccc2-c2ccccc2)n1 [Compound 102, 2-(3-(4-methyloxazol-2-yl)ureido)-N-(2,2,2-trifluoroethyl)-[1,1′-biphenyl]-4-sulfonamide] | 100 to 1000 nM
15 | O=C(Nc1nc(C(F)(F)F)cs1)Nc1cc(S(=O)(=O)NCC(F)(F)F)ccc1-c1ccccc1 [Compound 103, N-(2,2,2-trifluoroethyl)-2-(3-(4-(trifluoromethyl)thiazol-2-yl)ureido)-[1,1′-biphenyl]-4-sulfonamide] | 100 to 1000 nM
16 | O=C(Nc1cc(S(=O)(=O)NCC(F)(F)F)ccc1-c1ccccc1)Nc1ncccc1C(F)(F)F [Compound 104, N-(2,2,2-trifluoroethyl)-2-(3-(3-(trifluoromethyl)pyridin-2-yl)ureido)-[1,1′-biphenyl]-4-sulfonamide] | 1000 to 10000 nM
17 | O=C(Nc1nccc(Cl)n1)Nc1cc(S(=O)(=O)NCC(F)(F)F)ccc1-c1ccccc1 [Compound 105, 2-(3-(4-chloropyrimidin-2-yl)ureido)-N-(2,2,2-trifluoroethyl)-[1,1′-biphenyl]-4-sulfonamide] | 100 to 1000 nM
18 | O=C(Nc1nccc(C(F)(F)F)n1)Nc1cc(S(=O)(=O)NCC(F)(F)F)ccc1-c1ccccc1 [Compound 106, N-(2,2,2-trifluoroethyl)-2-(3-(4-(trifluoromethyl)pyrimidin-2-yl)ureido)-[1,1′-biphenyl]-4-sulfonamide] | 100 to 1000 nM

Row | SMILES | IC50
19 | Cc1ccnc(NC(=O)Nc2cc(S(=O)(=O)NCC(F)(F)F)ccc2-c2ccccc2)n1 [Compound 107, 2-(3-(4-methylpyrimidin-2-yl)ureido)-N-(2,2,2-trifluoroethyl)-[1,1′-biphenyl]-4-sulfonamide] | 1000 to 10000 nM
20 | O=C(Nc1cc(S(=O)(=O)NCC(F)(F)F)ccc1-c1ccccc1)n1ccc2ccccc21 [Compound 108, N-(4-(N-(2,2,2-trifluoroethyl)sulfamoyl)-[1,1′-biphenyl]-2-yl)-1H-indole-1-carboxamide] | 100 to 1000 nM
21 | O=C(Nc1cccc(C(F)(F)F)c1)Nc1cc(S(=O)(=O)Nc2ccccc2)ccc1-c1ccccn1 [Compound 109] | 1000 to 10000 nM
22 | CC(=O)Nc1cccc(-c2ccc(S(=O)(=O)Nc3ccccc3)cc2NC(=O)Nc2cccc(C(F)(F)F)c2)c1 [Compound 110] | 1000 to 10000 nM
23 | CNS(=O)(=O)c1ccc(-c2ccsc2)c(NC(=O)Nc2cccc(C(F)(F)F)c2)c1 [Compound 111, N-methyl-4-(thiophen-3-yl)-3-(3-(3-(trifluoromethyl)phenyl)ureido)benzenesulfonamide] | 100 to 1000 nM
24 | CCNS(=O)(=O)c1ccc(-c2ccsc2)c(NC(=O)Nc2cccc(C(F)(F)F)c2)c1 [Compound 112, N-ethyl-4-(thiophen-3-yl)-3-(3-(3-(trifluoromethyl)phenyl)ureido)benzenesulfonamide] | 100 to 1000 nM
25 | CCCNS(=O)(=O)c1ccc(-c2ccsc2)c(NC(=O)Nc2cccc(C(F)(F)F)c2)c1 [Compound 113, N-propyl-4-(thiophen-3-yl)-3-(3-(3-(trifluoromethyl)phenyl)ureido)benzenesulfonamide] | 100 to 1000 nM
26 | CCCCNS(=O)(=O)c1ccc(-c2ccsc2)c(NC(=O)Nc2cccc(C(F)(F)F)c2)c1 [Compound 114, N-butyl-4-(thiophen-3-yl)-3-(3-(3-(trifluoromethyl)phenyl)ureido)benzenesulfonamide] | 100 to 1000 nM
27 | CC(C)NS(=O)(=O)c1ccc(-c2ccsc2)c(NC(=O)Nc2cccc(C(F)(F)F)c2)c1 [Compound 115, N-isopropyl-4-(thiophen-3-yl)-3-(3-(3-(trifluoromethyl)phenyl)ureido)benzenesulfonamide] | 100 to 1000 nM
28 | CC(C)CNS(=O)(=O)c1ccc(-c2ccsc2)c(NC(=O)Nc2cccc(C(F)(F)F)c2)c1 [Compound 116, N-isobutyl-4-(thiophen-3-yl)-3-(3-(3-(trifluoromethyl)phenyl)ureido)benzenesulfonamide] | 100 to 1000 nM
29 | CCC(C)NS(=O)(=O)c1ccc(-c2ccsc2)c(NC(=O)Nc2cccc(C(F)(F)F)c2)c1 (stereo not drawn) [Compound 117, N-(sec-butyl)-4-(thiophen-3-yl)-3-(3-(3-(trifluoromethyl)phenyl)ureido)benzenesulfonamide] | 100 to 1000 nM
30 | CC(C)(C)NS(=O)(=O)c1ccc(-c2ccsc2)c(NC(=O)Nc2cccc(C(F)(F)F)c2)c1 [Compound 118, N-(tert-butyl)-4-(thiophen-3-yl)-3-(3-(3-(trifluoromethyl)phenyl)ureido)benzenesulfonamide] | 100 to 1000 nM
31 | C=CCNS(=O)(=O)c1ccc(-c2ccsc2)c(NC(=O)Nc2cccc(C(F)(F)F)c2)c1 [Compound 119, N-allyl-4-(thiophen-3-yl)-3-(3-(3-(trifluoromethyl)phenyl)ureido)benzenesulfonamide] | 100 to 1000 nM
32 | O=C(Nc1cccc(C(F)(F)F)c1)Nc1cc(S(=O)(=O)NCCO)ccc1-c1ccsc1 [Compound 120, N-(2-hydroxyethyl)-4-(thiophen-3-yl)-3-(3-(3-(trifluoromethyl)phenyl)ureido)benzenesulfonamide] | 100 to 1000 nM
33 | COCCNS(=O)(=O)c1ccc(-c2ccsc2)c(NC(=O)Nc2cccc(C(F)(F)F)c2)c1 [Compound 121, N-(2-methoxyethyl)-4-(thiophen-3-yl)-3-(3-(3-(trifluoromethyl)phenyl)ureido)benzenesulfonamide] | 100 to 1000 nM
34 | COCCCNS(=O)(=O)c1ccc(-c2ccsc2)c(NC(=O)Nc2cccc(C(F)(F)F)c2)c1 [Compound 122, N-(3-methoxypropyl)-4-(thiophen-3-yl)-3-(3-(3-(trifluoromethyl)phenyl)ureido)benzenesulfonamide] | 100 to 1000 nM
35 | CC(C)C(CO)NS(=O)(=O)c1ccc(-c2ccsc2)c(NC(=O)Nc2cccc(C(F)(F)F)c2)c1 (stereo not drawn) [Compound 123, N-(1-hydroxy-3-methylbutan-2-yl)-4-(thiophen-3-yl)-3-(3-(3-(trifluoromethyl)phenyl)ureido)benzene sulfonamide] | 100 to 1000 nM
36 | O=C(Nc1cccc(C(F)(F)F)c1)Nc1cc(S(=O)(=O)NC2CCC2)ccc1-c1ccsc1 [Compound 125, N-cyclobutyl-4-(thiophen-3-yl)-3-(3-(3-(trifluoromethyl)phenyl)ureido)benzenesulfonamide] | 100 to 1000 nM

Reference: patent publication US10202339B2, “Therapeutic compounds and compositions” (AGIOS PHARMACEUTICALS, INC., priority 2012, dated 2019)
